Twelve compounds from US7442841B2, “Extraction process” (Invista North America S.A R.L., priority 2006, dated 2008) can be followed below.

A short description of data set [1]: Liquid-liquid separation of cyclohexanol from cyclohexane, distribution coefficient by gas chromatography. It counts as physicochemical. The following applies: for Cyclohexanol D (distribution coefficient): concentration in extracting solvent phase divided by concentration in cyclohexane phase, 1 mL stock solution + 1 mL extracting solvent; for Cyclohexanol Log D: extracting solvent/cyclohexane, equal volumes. The method, then: The distribution coefficient for the separation was then calculated.

Data set [2] in a line: Liquid-liquid separation of cyclohexanone from cyclohexane, distribution coefficient by gas chromatography. To be noted: for Cyclohexanone D (distribution coefficient): concentration in extracting solvent phase divided by concentration in cyclohexane phase, 1 mL stock solution + 1 mL extracting solvent; for Cyclohexanone Log D: extracting solvent/cyclohexane, equal volumes.
Method: As used herein, the term “distribution coefficient” referring to the liquid-liquid separation refers to the concentration of the separable component in the ionic liquid-based phase divided by the concentration of the separable component in the non-polar solvent-based phase. These concentrations are measured subsequent to settling, i.e. when the separation mixture has reached equilibrium subsequent to the vigorous shaking.
The general method used for all the examples was as follows.
Stock solution; 250 mg cyclohexanol (Molecular Weight=100 gmol^−1) and 250 mg cyclohexanone (Molecular Weight=98 gmol^−1) in 10 g of cyclohexane (Molecular Weight=84 gmol^−1).
Method: add 1 mL (0.8 g) of stock solution (20 mg each of cyclohexanol and cyclohexanone) to 1 mL of ionic liquid and shake vigorously. After settling time and complete phase separation, 3 drops of the top layer were added to a vial and filled with ethylene chloride. Gas chromatography analysis was used to provide the number of moles of the separable component in each liquid phase. The distribution coefficient for the separation was then calculated.
The nature of data set [3]: Extraction of octanol from octane, IL/Octane distribution coefficient. It is filed as physicochemical. The following applies: concentration of substrate in IL divided by concentration in octane. The protocol: (§1) A corresponding set of experiments was conducted to study the extraction of octanol and 2-octanone from octane using ionic liquids. The results are presented in Table 2 below, in which the IL/Octane distribution coefficient is calculated as the concentration of substrate in IL divided by the concentration of substrate in octane.

Data set [4] is described as follows: Extraction of 2-octanone from octane, IL/Octane distribution coefficient. It is filed as physicochemical. The following applies: concentration of substrate in IL divided by concentration in octane. The protocol: as §1

With `O` [Example 1, H2O, reference compound], in data set [1], the “Cyclohexanol D (distribution coefficient)” value (from here on “Cyclohexanol D”) came to 0.86 and the “Cyclohexanol Log D” value is −0.07. In data set [2], the “Cyclohexanone D (distribution coefficient)” value (“Cyclohexanone D” for short) is 0.34 and the “Cyclohexanone Log D” value is −0.47.

As to `CC[n+]1ccccc1` [Example 2], in data set [1], the “Cyclohexanol D” value was found to be 1.60 and the “Cyclohexanol Log D” value worked out at 0.20. In addition, the “Cyclohexanone D” value in data set [2] is listed as 3.40.

As for `CCCC[n+]1ccn(C)c1` [Example 3], the “Cyclohexanol D” value in data set [1] turned out to be 1.77. The “Cyclohexanone D” value in data set [2] was found to be 2.11.

On to `CCCCn1cc[n+](C)c1` [Example 4], for which, in data set [1], the “Cyclohexanol D” value is on record as 2.32. The “Cyclohexanone D” value in data set [2] stood at 1.51.

For `C[N+](C)(C)CCO` [Example 5], in data set [1], the “Cyclohexanol D” value turned out to be 2.91 and the “Cyclohexanol Log D” value is reported as 0.46. For the same compound, in data set [2], the “Cyclohexanone D” value is listed as 3.00 and the “Cyclohexanone Log D” value was 0.478.

With `CCCCn1cc[n+](C)c1` [Example 6], in data set [1], the “Cyclohexanol D” value turned out to be 4.10. Moreover, in data set [2], the “Cyclohexanone D” value came out at 4.38.

Regarding `CCCC[N+]1(C)CCCC1` [Example 7], in data set [1], the “Cyclohexanol D” value is 5.12 and the “Cyclohexanol Log D” value was 0.71. In addition, the “Cyclohexanone D” value in data set [2] was found to be 5.00.

In the case of `C[N+]1(CCCCS(=O)(=O)O)CCCC1` [Example 8], in data set [1], the “Cyclohexanol D” value was 5.96 and the “Cyclohexanol Log D” value is given as 0.78. In addition, the “Cyclohexanone D” value in data set [2] came to 0.21.

`C[S+](C)[O-]` [Example 14, dimethyl sulfoxide, reference compound]: in data set [1], the “Cyclohexanol D” value came to 24.79 and the “Cyclohexanol Log D” value is given as 1.39. In addition, in data set [2], the “Cyclohexanone D” value amounted to 2.80 and the “Cyclohexanone Log D” value came out at 0.45.

With `CCCCn1cc[n+](C)c1` [Example 15], the “IL/Octane distribution coefficient Octanol” value in data set [3] stood at 1.06. In data set [4], the “IL/Octane distribution coefficient 2-Octanone” value came out at 2.08.

Consider `Br.CCCC[n+]1ccn(C)c1` [Example 17], for which, in data set [3], the “IL/Octane distribution coefficient Octanol” value was found to be 1.44. Besides, the “IL/Octane distribution coefficient 2-Octanone” value in data set [4] is given as 0.16.

For the compound `C[S+](C)[O-]` [Example 19, dimethyl sulfoxide, reference compound], the “IL/Octane distribution coefficient Octanol” value in data set [3] was found to be 7.67. For the same compound, in data set [4], the “IL/Octane distribution coefficient 2-Octanone” value stood at 0.89.
